Assay results: patent publication US20200339582A1, “Atypical Carbapenem Antibiotics with Improved Activity Against Carbapenemase-Producing Acinetobacter baumannii” (priority 2019, published 2020)
In brackets after ≈: the same amount, converted by molar mass. Like-named read-outs stand apart in the source and are kept apart here.

Legend:
Assay type in all cases: cell-based
[1] = system: Acinetobacter baumannii (carbapenemase produced: None); assay: MIC against Acinetobacter baumannii, no carbapenemase produced
[2] = system: resistant Acinetobacter baumannii producing OXA-23; assay: MIC against Acinetobacter baumannii producing OXA-23
[3] = system: resistant Acinetobacter baumannii producing OXA-48; assay: MIC against Acinetobacter baumannii producing OXA-48
[4] = system: resistant Acinetobacter baumannii producing KPC-6; assay: MIC against Acinetobacter baumannii producing KPC-6
[5] = system: resistant Acinetobacter baumannii producing NDM-1; assay: MIC against Acinetobacter baumannii producing NDM-1
[6] = system: resistant Acinetobacter baumannii producing VIM-2; assay: MIC against Acinetobacter baumannii producing VIM-2
[7] = Acinetobacter baumannii, Table 2, enzyme produced: None, read-out: MIC
[8] = Acinetobacter baumannii, Table 2, enzyme produced: VIM-2, read-out: MIC
[9] = Table 1, carbapenemase produced: None
[10] = Table 1, carbapenemase produced: OXA-23
[11] = Table 1, carbapenemase produced: OXA-48
[12] = Table 2, enzyme produced: OXA-23
[13] = Table 2, enzyme produced: OXA-48
[14] = Acinetobacter baumannii, Table 1, carbapenemase produced: None, read-out: MIC
[15] = Acinetobacter baumannii, Table 1, carbapenemase produced: OXA-23, read-out: MIC
[16] = Acinetobacter baumannii, Table 1, carbapenemase produced: OXA-48, read-out: MIC
[17] = Acinetobacter baumannii, Table 2, enzyme produced: OXA-48, read-out: MIC
[18] = Acinetobacter baumannii, Table 2, enzyme produced: NDM-1, read-out: MIC

| MIC [1, 9] [µg/mL] | MIC [2, 10] [µg/mL] | MIC [3, 11] [µg/mL] | SMILES | MIC [1, 7] [µg/mL] | MIC ([4]; Acinetobacter baumannii) [µg/mL] | MIC [6, 8] [µg/mL] | MIC [2, 12] [µg/mL] | MIC [1, 14] [µg/mL] | MIC [2, 15] [µg/mL] | MIC [3, 16] [µg/mL] | MIC [3, 17] [µg/mL] | MIC [5, 18] [µg/mL] | further results |
| --- | --- | --- | --- | --- | --- | --- | --- | --- | --- | --- | --- | --- | --- |
| – | – | – | CC1(C)S[C@@H]2[C@H](NC(=O)[C@H](N)c3ccccc3)C(=O)N2[C@H]1C(=O)O [AMP, ampicillin] | 32 (≈ 91.6 µM) | 4100 (≈ 11700 µM) | > 8190 | – | – | – | – | – | – | MIC ([2]; Acinetobacter baumannii, Table 2, enzyme produced: OXA-23, read-out: MIC): 8190 µg/mL (≈ 23400 µM); MIC ([3]; Acinetobacter baumannii): 1020 µg/mL (≈ 2930 µM); MIC ([5]; Acinetobacter baumannii): 1020 µg/mL (≈ 2930 µM) |
| 0.25 (≈ 0.703 µM) | 8 (≈ 22.5 µM) | 16 (≈ 45 µM) | CN(C)C(=O)[C@@H]1C[C@H](SC2=C(C(=O)O)N3C(=O)[C@H](CO)[C@H]3C2)CN1 [Compound 1] | – | – | – | – | – | – | – | – | – | – |
| 0.5 (≈ 1.3 µM) | 4 (≈ 10.4 µM) | 1 (≈ 2.61 µM) | C[C@@H](O)[C@H]1C(=O)N2C(C(=O)O)=C(S[C@@H]3CN[C@H](C(=O)N(C)C)C3)CC12C (stereo partly drawn) [Compound 2a, (6S)-6-[(R)-1-Hydroxyethyl]-3-[(3S,5S)-5-(dimethylamino)carbonyl-3-pyrrolidinylthio]-5-methyl-7-oxoazabicyclo[3.2.0]hept-2-ene-2-carboxylate] | – | – | – | – | – | – | – | – | – | – |
| – | – | – | C[C@@H](O)[C@H]1C(=O)N2C(C(=O)O)=C(S[C@@H]3CN[C@H](CNS(N)(=O)=O)C3)[C@H](C)[C@H]12 [Doripenem, doripenem] | 0.25 (≈ 0.595 µM) | 128 (≈ 304 µM) | 32 (≈ 76.1 µM) | 32 (≈ 76.1 µM) | 0.25 (≈ 0.595 µM) | 32 (≈ 76.1 µM) | 16 (≈ 38 µM) | 16 (≈ 38 µM) | 64 (≈ 152 µM) | – |
| – | – | – | C[C@@H](O)[C@H]1C(=O)N2C(C(=O)O)=C(S[C@@H]3CN[C@H](C(=O)Nc4cccc(C(=O)O)c4)C3)[C@H](C)[C@H]12 [Ertapenem, ertapenem] | 4 (≈ 8.41 µM) | > 512 | – | 256 (≈ 538 µM) | 2 (≈ 4.21 µM) | 256 (≈ 538 µM) | – | – | 256 (≈ 538 µM) | MIC ([3]; Acinetobacter baumannii): 128 µg/mL (≈ 269 µM); MIC [3, 13]: 128 µg/mL (≈ 269 µM); MIC ([6]; Acinetobacter baumannii): > 512 µg/mL |
| – | – | – | C[C@@H](O)[C@H]1C(=O)N2C(C(=O)O)=C(SCCN=CN)C[C@H]12 [Imipenem, imipenem] | 0.25 (≈ 0.835 µM) | – | 32 (≈ 107 µM) | 32 (≈ 107 µM) | 0.25 (≈ 0.835 µM) | 32 (≈ 107 µM) | 16 (≈ 53.4 µM) | 16 (≈ 53.4 µM) | 16 (≈ 53.4 µM) | – |
| – | – | – | C[C@@H](O)[C@H]1C(=O)N2C(C(=O)O)=C(S[C@@H]3CN[C@H](C(=O)N(C)C)C3)[C@H](C)[C@H]12 [Meropenem, meropenem] | 0.5 (≈ 1.3 µM) | 256 (≈ 668 µM) | 64 (≈ 167 µM) | 64 (≈ 167 µM) | 0.5 (≈ 1.3 µM) | 64 (≈ 167 µM) | 8 (≈ 20.9 µM) | 16 (≈ 41.7 µM) | – | MIC ([5]; Acinetobacter baumannii): 128 µg/mL (≈ 334 µM) |

| SMILES | MIC [1, 9] [µg/mL] | MIC [2, 10] [µg/mL] | MIC [3, 11] [µg/mL] | MIC [1, 7] [µg/mL] | MIC ([4]; Acinetobacter baumannii) [µg/mL] | MIC [6, 8] [µg/mL] | MIC [2, 12] [µg/mL] | MIC [1, 14] [µg/mL] | MIC [2, 15] [µg/mL] | MIC [3, 16] [µg/mL] | MIC [3, 17] [µg/mL] | MIC [5, 18] [µg/mL] | further results |
| --- | --- | --- | --- | --- | --- | --- | --- | --- | --- | --- | --- | --- | --- |
| CCC12CC(S[C@@H]3CN[C@H](C(=O)N(C)C)C3)=C(C(=O)O)N1C(=O)[C@@H]2[C@@H](C)O (stereo partly drawn) [Compound 2b, (6S)-6-[(R)-1-Hydroxyethyl]-3-[(3S,5S)-5-(dimethylamino)carbonyl-3-pyrrolidinylthio]-5-ethyl-7-oxoazabicyclo[3.2.0]hept-2-ene-2-carboxylate] | 2 (≈ 5.03 µM) | 4 (≈ 10.1 µM) | 4 (≈ 10.1 µM) | – | – | – | 4 (≈ 10.1 µM) | – | – | – | – | – | MIC ([1]; Table 2, enzyme produced: None): 2 µg/mL (≈ 5.03 µM); MIC [3, 13]: 4 µg/mL (≈ 10.1 µM); MIC ([4]; Table 2, enzyme produced: KPC-6): 4 µg/mL (≈ 10.1 µM); MIC ([5]; Table 2, enzyme produced: NDM-1): 2 µg/mL (≈ 5.03 µM); MIC ([6]; Table 2, enzyme produced: VIM-2): 4 µg/mL (≈ 10.1 µM) |
